The record followed here is article PMC9848351, “Discovery of new pyridine-quinoline hybrids as competitive and non-competitive PIM-1 kinase inhibitors with apoptosis induction and caspase 3/7 activation capabilities” (Journal of Enzyme Inhibition and Medicinal Chemistry, 2023).

What is called EC50 is the concentration giving half of the maximal effect. Broadly, the IC50 is the concentration that inhibits the measured activity by half. Higher therefore signals lower potency. For orientation: melting point means the temperature, or range, at which the solid turns liquid.

Where only a bound is given, the exact number is not on record here.

In data set [1] the test system is normal human lung fibroblast Wi-38 cell line. The data set is described as follows: MTT cytotoxicity on normal cells. Format: cell-based. To be noted: Wi-38, 72 h, MTT, mean ± SEM; for EC50: Homo sapiens, 50% cell viability; for Wi-38 EC100: safe dose, 100% cell viability. A digest of the protocol:
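Wi-38 fibroblasts in DMEM with 10% FBS were seeded at 5x10^3 cells/well, left 24 h to attach, then exposed to serial compound concentrations for 72 h at 37 °C, 5% CO2. MTT was added for 3 h, formazan dissolved in DMSO and absorbance read at 570 nm. IC50 and EC100 (safe dose) were estimated from the concentration series.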

Data set [2] deals with liver cancer cell line (HepG-2). The data set is described as follows: MTT anticancer activity, HepG-2. It counts as cell-based, human. To be noted: Homo sapiens, HepG2; HepG-2, 72 h, MTT; mean ± SEM. A digest of the protocol: (§1)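 Cells seeded at 5x10^3/well (Caco-2 in DMEM, others in RPMI-1640, 10% FBS) and exposed to serial compound concentrations for 72 h at 37 °C, 5% CO2, starting 24 h after seeding. MTT (3 h, 37 °C) read at 570 nm after DMSO solubilisation; IC50 calculated from viability.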

Data set [3] has as its system Colon cancer cells (Caco-2). The data set is described as follows: MTT anticancer activity, Caco-2. It counts as cell-based, human. To be noted: for IC50: Homo sapiens, Caco-2, 72 h, MTT, mean ± SEM; for Caco-2 SI: selectivity index, Wi-38 versus Caco-2. In a few lines:
as §1

The test system of data set [4] is prostate cancer cell line (PC-3). The data set is described as follows: MTT anticancer activity, PC-3. Format: cell-based, human. The following applies: Homo sapiens, 72 h, PC-3, 72 h, mean ± SEM. A digest of the protocol:
as §1

The test system of data set [5] is myeloid leukaemia cell line (NFS-60). The data set is described as follows: MTT anticancer activity, NFS-60. Format: cell-based. To be noted: NFS-60, 72 h, MTT; mean ± SEM. In a few lines: as §1
Data set [6] has as its target PIM-2 kinase (Homo sapiens, UniProt Q9P1W9). The data set is described as follows: PIM-2 kinase inhibitory activity (Promega kinase assay kit).
Source text: PIM-1 and PIM-2 kinase inhibitory activity
PIM-1 and PIM-2 kinase utilizing PIM-1 and PIM-2 Kinase Assay Kit – Promega Corporation catalog #V4032, following the manufacturer’s instructions 26

PIM-2 kinase, sequence (Q9P1W9 whole entry): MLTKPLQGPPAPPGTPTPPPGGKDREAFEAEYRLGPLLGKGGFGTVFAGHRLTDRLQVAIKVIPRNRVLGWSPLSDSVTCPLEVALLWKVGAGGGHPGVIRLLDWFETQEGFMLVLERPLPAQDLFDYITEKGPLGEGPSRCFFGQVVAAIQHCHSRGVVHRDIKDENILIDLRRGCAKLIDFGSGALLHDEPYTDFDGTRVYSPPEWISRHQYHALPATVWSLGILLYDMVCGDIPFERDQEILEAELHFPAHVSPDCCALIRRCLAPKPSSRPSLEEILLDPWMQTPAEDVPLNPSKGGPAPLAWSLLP

Molecule `N#Cc1c(-c2cc3cc(Cl)ccc3[nH]c2=O)cc(-c2cccc(O)c2)nc1S` [14b, 4-(6-Chloro-2-oxo-1,2-dihydroquinolin-3-yl)-6-(3-hydroxyphenyl)-2-mercaptopyridine-3-carbonitrile] yielded a melting point of 227 to 230 °C. Also, in data set [1], the EC50 worked out at 196 ± 12 nM and the “Wi-38 EC100” value is 0.153 ± 0.005 µM. In data set [2], the IC50 stood at 125 ± 2 nM. Besides, in data set [3], the IC50 came to 146 ± 19 nM and the “Caco-2 SI” value is reported as 1.342. In data set [4], the IC50 came to 140 ± 4 nM. The same molecule returned an IC50 in data set [5] of 135 ± 3 nM.
As to `COc1ccc2[nH]c(=O)c(-c3cc(-c4cccc(O)c4)nc(S)c3C#N)cc2c1` [14c, 6-(3-Hydroxyphenyl)-2-mercapto-4-(6-methoxy-2-oxo-1,2-dihydroquinolin-3-yl)pyridine-3-carbonitrile], the melting point is 278 to 280 °C. Also, in data set [1], the EC50 came out at 166 ± 9 nM and the “Wi-38 EC100” value was found to be 0.0972 ± 0.005 µM. Further, half-maximal inhibition in data set [2] (IC50) required 55.7 nM. For the same molecule, in data set [3], inhibition was half-maximal at 84.2 ± 5 nM (IC50) and the “Caco-2 SI” value worked out at 1.971. The molecule further showed an IC50 in data set [4] of 62.6 ± 0.1 nM. Besides, the midpoint of inhibition in data set [5], the IC50, lay at 96.5 ± 4 nM.
The molecule `N#Cc1c(-c2cc3ccccc3[nH]c2=O)cc(-c2cccc(O)c2)nc1N` [15a, 2-Amino-6-(3-hydroxyphenyl)-4-(2-oxo-1,2-dihydroquinolin-3-yl)pyridine-3-carbonitrile] gave a melting point of more than 300 °C. In addition, in data set [1], the midpoint of the response, the EC50, lay at 202 ± 3 nM and the “Wi-38 EC100” value turned out to be 0.0663 ± 0.003 µM. Further, the IC50 in data set [2] is 108 ± 7 nM. Moreover, in data set [3], the IC50 is 191 ± 19 nM and the “Caco-2 SI” value stood at 1.058. In data set [4], this molecule returned an IC50 of 242 ± 37 nM. This molecule also gave an IC50 in data set [5] of 247 ± 16 nM.
The molecule `N#Cc1c(-c2cc3cc(Cl)ccc3[nH]c2=O)cc(-c2cccc(O)c2)nc1N` [15b, 2-Amino-4-(6-chloro-2-oxo-1,2-dihydroquinolin-3-yl)-6-(3-hydroxyphenyl)pyridine-3-carbonitrile] returned a melting point of more than 300 °C. In data set [1], the EC50 is 264 ± 6 nM and the “Wi-38 EC100” value was found to be 0.169 ± 0.009 µM. Besides, the IC50 in data set [2] is 299 ± 8 nM. In data set [3], half-maximal inhibition (IC50) required 194 ± 2 nM and the “Caco-2 SI” value stood at 1.361. Further, in data set [4], the IC50 was determined as 196 ± 61 nM. Besides, the IC50 in data set [5] is 323 ± 7 nM.
On to `COc1ccc2[nH]c(=O)c(-c3cc(-c4cccc(O)c4)nc(N)c3C#N)cc2c1` [15c, 2-Amino-6-(3-hydroxyphenyl)-4-(6-methoxy-2-oxo-1,2-dihydroquinolin-3-yl)pyridine-3-carbonitrile], for which the melting point was 259 to 260 °C. Besides, in data set [1], the EC50 stood at 121 ± 2 nM and the “Wi-38 EC100” value was found to be 0.101 ± 0.005 µM. Further, the IC50 in data set [2] came out at 107 ± 11 nM. Further, in data set [3], 141 ± 21 nM corresponded to half-maximal inhibition (IC50) and the “Caco-2 SI” value is 0.858. The IC50 in data set [4] stood at 143 ± 13 nM. Moreover, the midpoint of inhibition in data set [5], the IC50, lay at 122 ± 1 nM.
As to `O=c1c(O)c(-c2ccc(O)c(O)c2)oc2cc(O)cc(O)c12` [Quercetin, reference compound], it took 610 nM to reach half-maximal inhibition in data set [6] (IC50).
